This is an account of results in ChEMBL document CHEMBL4184154, “Docking based design of diastereoisomeric MTCA as GPIIb/IIIa receptor inhibitor” (Bioorg Med Chem Lett, 2017).

Activity calls are given as the source filed them. The calls are words filed in the database; no cut-off is given here. Where a SMILES comes first, the peptide text is derived from it. Bridges are numbered along the chain shown (N, C = ends). [ ]: non-standard residue; d: D form. hArg = N=C(N)NCCCC[C@H](N)C(=O)O; Mpa = O=C(O)CCS

Test [1] concerns the target T1, Integrin subunit alpha 2b/beta-3 (Rattus norvegicus, UniProt D3ZAC0+Q8R2H2).
T1 sequence (D3ZAC0 whole entry): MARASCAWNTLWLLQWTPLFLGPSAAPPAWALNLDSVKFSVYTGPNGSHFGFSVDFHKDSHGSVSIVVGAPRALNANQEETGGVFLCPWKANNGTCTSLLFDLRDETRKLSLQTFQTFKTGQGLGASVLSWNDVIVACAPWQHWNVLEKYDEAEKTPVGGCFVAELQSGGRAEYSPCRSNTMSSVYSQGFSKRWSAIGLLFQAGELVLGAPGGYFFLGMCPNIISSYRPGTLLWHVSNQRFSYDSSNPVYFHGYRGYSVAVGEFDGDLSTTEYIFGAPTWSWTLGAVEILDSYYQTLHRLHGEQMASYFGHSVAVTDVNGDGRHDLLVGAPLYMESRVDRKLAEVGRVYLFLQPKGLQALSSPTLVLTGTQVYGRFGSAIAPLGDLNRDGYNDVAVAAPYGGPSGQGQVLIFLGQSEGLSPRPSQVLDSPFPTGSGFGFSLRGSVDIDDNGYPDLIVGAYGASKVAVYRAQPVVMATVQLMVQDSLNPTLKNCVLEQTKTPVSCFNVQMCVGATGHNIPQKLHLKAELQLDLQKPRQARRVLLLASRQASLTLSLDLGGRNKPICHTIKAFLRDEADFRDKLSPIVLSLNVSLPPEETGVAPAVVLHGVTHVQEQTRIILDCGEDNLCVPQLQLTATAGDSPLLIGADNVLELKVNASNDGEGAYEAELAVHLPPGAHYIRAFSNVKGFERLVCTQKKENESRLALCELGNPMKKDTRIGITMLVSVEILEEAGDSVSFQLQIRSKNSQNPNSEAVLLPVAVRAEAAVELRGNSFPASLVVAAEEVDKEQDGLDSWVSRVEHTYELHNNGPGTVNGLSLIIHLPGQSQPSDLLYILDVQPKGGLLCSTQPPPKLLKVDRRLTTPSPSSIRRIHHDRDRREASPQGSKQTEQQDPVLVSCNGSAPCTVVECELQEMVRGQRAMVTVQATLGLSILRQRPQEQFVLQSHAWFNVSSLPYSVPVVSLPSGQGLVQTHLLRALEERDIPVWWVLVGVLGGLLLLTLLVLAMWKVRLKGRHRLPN
T1 sequence (Q8R2H2 whole entry): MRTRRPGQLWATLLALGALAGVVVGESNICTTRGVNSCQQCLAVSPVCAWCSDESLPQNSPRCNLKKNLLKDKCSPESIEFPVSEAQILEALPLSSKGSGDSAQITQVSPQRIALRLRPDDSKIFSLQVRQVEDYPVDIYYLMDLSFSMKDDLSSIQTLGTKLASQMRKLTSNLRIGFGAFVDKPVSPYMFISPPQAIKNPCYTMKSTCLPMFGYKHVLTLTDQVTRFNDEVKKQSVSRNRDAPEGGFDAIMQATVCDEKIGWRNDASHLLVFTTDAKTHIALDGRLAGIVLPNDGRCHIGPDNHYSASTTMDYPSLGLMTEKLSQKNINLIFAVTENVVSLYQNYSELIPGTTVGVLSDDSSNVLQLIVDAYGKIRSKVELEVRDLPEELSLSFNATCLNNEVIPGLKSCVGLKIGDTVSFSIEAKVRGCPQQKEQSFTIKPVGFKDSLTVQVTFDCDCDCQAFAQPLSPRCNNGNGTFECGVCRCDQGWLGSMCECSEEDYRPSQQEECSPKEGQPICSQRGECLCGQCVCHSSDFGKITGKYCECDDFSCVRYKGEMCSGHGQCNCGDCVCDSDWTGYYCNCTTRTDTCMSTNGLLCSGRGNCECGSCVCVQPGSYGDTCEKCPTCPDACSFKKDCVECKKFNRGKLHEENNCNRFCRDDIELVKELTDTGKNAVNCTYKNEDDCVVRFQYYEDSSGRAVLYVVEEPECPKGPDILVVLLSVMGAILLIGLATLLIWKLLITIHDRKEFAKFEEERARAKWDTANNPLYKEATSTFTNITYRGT
Kind of test: Binding affinity to GP2b/3a in rat blood assessed as conformational change by measuring soluble GP2b/3a levels after 12 hrs by UV-spectrophotometric analysis.

The test system of test [2] is Rattus norvegicus. Kind of test: Antiplatelet activity in Sprague Dawley rat arterial thrombosis model assessed as downregulation of GP2b/3a protein expression in plasma administered at 1 umol/kg, po by ELISA. The test is classed as functional, organism-based.
A further test has as its system Platelet. Kind of test: Antiplatelet activity in rat platelet-rich plasma assessed as inhibition of arachidonic acid-induced platelet aggregation by atomic force microscopic method. Type of test: functional.
Test [3] relates to Rattus norvegicus. Briefly: Anti-thrombotic activity in Sprague-Dawley rat arterial thrombosis model assessed as reduction in thrombus weight at 1 umol/kg, po pretreated for 30 mins followed by thrombosis induction measured after 15 mins. Type of test: functional, organism-based.
Test [4] has as its target T2, Integrin subunit alpha 2b/beta-3 (Rattus norvegicus) (UniProt D3ZAC0+Q8R2H2). Kind of test: Inhibition of GP2b/3a in rat platelet-rich plasma assessed as reduction in arachidonic acid-induced platelet aggregation at 10^-8 to 10^-5 M after 5 mins by aggregometric analysis.
Test [5] has as its target T2, Integrin subunit alpha 2b/beta-3 (Rattus norvegicus). Briefly: Inhibition of GP2b/3a in rat platelet-rich plasma assessed as reduction in arachidonic acid-induced platelet aggregation at 10^-8 to 10^-2 M after 5 mins by aggregometric analysis.
Test [6] concerns Rattus norvegicus. Kind of test: Anti-thrombotic activity in Sprague-Dawley rat arterial thrombosis model assessed as reduction in thrombus weight at 16.7 umol/kg, po pretreated for 30 mins followed by thrombosis induction measured after 15 mins. The test is classed as functional, organism-based.

On to `C[C@@H]1N[C@H](C(=O)O)Cc2c1[nH]c1ccccc21`, for which the EC50 in test [1] came out at 1660 nM. In the test with Rattus norvegicus [2], the result was Active. Further, in the test with Platelet, the Activity entry was “Dose-dependent effect” and the MEC came to 1 ×10⁻⁵ M. Also, the outcome in the test with Rattus norvegicus [3] was Active. Further, the inhibition result in test [4] is “Active”.
On to `C[C@H]1N[C@H](C(=O)O)Cc2c1[nH]c1ccccc21`, for which the EC50 in test [1] amounted to 1160 nM. Moreover, the result in the test with Rattus norvegicus [2] was Active. Besides, in the test on Platelet, the Activity entry is “Dose-dependent effect” and the MEC was 1 ×10⁻⁶ M. Also, the outcome in the test on Rattus norvegicus [3] was Active. For the same compound, the inhibition entry in test [4] is “Active”.
As to `N=C(N)NCCCC[C@@H]1NC(=O)CCSSC[C@@H](C(N)=O)NC(=O)[C@@H]2CCCN2C(=O)[C@H](Cc2c[nH]c3ccccc23)NC(=O)[C@H](CC(=O)O)NC(=O)CNC1=O` ([Mpa][hArg]GDWPC-NH2; disulfide 1-7), in test [4], the inhibition entry is “Active”.
Regarding `N=C(N)NCCC[C@H](N)C(=O)NCC(=O)N[C@@H](CC(=O)O)C(=O)N[C@@H](CO)C(=O)O`, in test [5], the inhibition entry was “Active”.
For the compound `CC(=O)Oc1ccccc1C(=O)O`, the result in the test with Rattus norvegicus [6] was Active.
